Assay results: patent US4900538A (Suntory Limited, priority 1982, dated 1990)
“And” between values parts separate entries of the source, which are not always exact repeats. Identical values can stand only once. Like-named read-outs stand apart in the source and are kept apart here.

Tests used:
[1] = test system: Escherichia coli K 12 envA uvr B (λ), GY 5027; assay type: cell-based; conditions: for Inactivation of mutagenicity (phage induction activity) of adriamycin, dose-response: absence of S9 mix, molar ratios to adriamycin 1:1 to 30:1 (FIG. 12)
Source text: Inductest III (P. Morean, A. Bailone and R. Devoret: Proc. Natl. Acad. Sci. U.S.A., Vol. 73, No. 10, 3700-3704, '76). This method is a test for mutagenicity using prophage λ induction as an index. The strains used in this method were Escherichia coli K 12 envA uvr B (λ), GY 5027 and as λ indicator GY 4015 (Amp R).
This method uses phage induction activity as an index.
Potassium sulfite was used as a sulfite compound and potassium pyrosulfite which produces 2 equivalents of hydrogensulfite ion when dissolved in water was used as acid sulfite.
Dithionite produces two equivalents of hydrogensulfite ions when dissolved in water.
The molar ratio of sodium dithionite to daunomycin was 15:1. In FIGS. 13 and 14 the symbol indicates daunomycin alone and the symbol indicates daunomycin plus sodium dithionite.
Sodium sulfite was used as a sulfite at a molar ratio of sodium sulfite to daunomycin of 30:1.

DNA = conditions: cited from earlier work
L1210 cells = assay: In vivo carcinostatic activity against transplanted L1210 cells (ILS, survivors); conditions: i.p.
Procedure: Male BDF1 mice (57BL/6XDBA/2) weighing 19-20 g were used in this experiment. Feed (CA-1, Nihon Kurea Kabushiki Kaisha, Meguro-ku, Tokyo, Japan) and water were freely taken. 1×10^5 L 1210 cells were intraperitoneally transplanted to a mouse in each group of 6 mice. Test substances were intraperitoneally administered to mice 24 hours after i.p. injection of L1210 cells and thereafter one time each day for 5 days. Survival days of all of the mice were recorded and carcinostatic effects of the test compounds were measured by using index of life spread (ILS %) to the control group.

[2] = test system: Salmonella typhimurium TA 98; assay: Ames test (Preincubation Method): mutagenicity and its inactivation by sulfite compounds; conditions: FIGS. 1, 6 and 7 (also FIGS. 3 and 4, Inductest III)
Procedure: This method is based on the Ames test (B. N. Ames, J. Mac Gann and E. Yamasaki: Mutation Research, Vol. 31, 347-364, '75). […] The strain used in this method was histidine requisite Salmonella typhimurium TA 100 and TA 98 (hereinafter referred to as St TA 100 and St TA 98).
At the same time, predetermined amounts of sodium sulfite, sodium hydrogensulfite (sodium acid sulfite), sodium pyrosulfite, sodium dithionite or sulphurous anhydride were dissolved in aseptic distilled water.
To 100 μl of each of the samples prepared in the above (2), 500 μl of 100 mM sodium phosphate buffer (pH 7.4) and 100 μl of a culture of St TA 100 or St TA 98 were added. Each mixture was shaken for 20 minutes at 37° C., added to 2.5 ml of a soft agar solution and spread on 0.1% glucose agar plate which had been supplemented with 0.1 μM per plate of histidine in order to create several divisions. After incubation at 37° C. for 48 hours, the number of colonies on the plate was counted as revertants. This method uses nutrient requisiteness of the above strains as an index.

male CD-1 (ICR) mice = assay: Acute toxicity in mice (survival days)
Procedure: Male CD-1 (ICR) mice (12 weeks old) were used as test animals. The temperature in the animal room was maintained at 23° C. (±3° C.) and relative humidity was kept at 30-70%. Artificial lighting was carried out by illumination and darkening at successive intervals of 12 hours.
The test substances were dissolved in distilled water and intraperitoneally administered to the animals at a dose of 10 ml/kg.
The above t-test was carried out as follows.

[3] = test system: strains used (Salmonella typhimurium, Escherichia coli); assay: Growth / survival of the strains used in the mutagenicity tests; assay type: cell-based; conditions: explains apparent reduction of mutagenicity at high levels
[4] = Japanese Patent application No. 144272/81; cited from earlier work

**Q.** Which “Inactivation of mutagenicity (phage induction activity) of adriamycin, dose-response” value [1] does the source give for `O=S([O-])S(=O)(=O)[O-].[K+].[K+]` [acid sulfite, potassium pyrosulfite] here?
**A.** Its value is “the more remarkably the mutagenicity of adriamycin was inactivated”.

**Q.** Which “Base pairs of DNA reacting per one molecule (intercalation)” value (DNA) does the source give for `COc1cccc2c1C(=O)c1c(O)c3c(c(O)c1C2=O)C[C@@](O)(C(=O)CO)C[C@@H]3O[C@H]1C[C@H](N)[C@H](O)[C@H](C)O1` [adriamycin] here?
**A.** Its value is 3 base pairs.

**Q.** And the “Survivors (on Day 60)” value (L1210 cells; adriamycin 1 mg/kg/day × 5, sodium hydrogensulfite 0)?
**A.** Its value is 1 and 1/6.

**Q.** And the “Survivors (on Day 60)” value (L1210 cells; adriamycin 3 mg/kg/day × 5, sodium hydrogensulfite 0)?
**A.** The value was “zero and 0/6”.

**Q.** What about the “Apparent change of mutagenicity at high levels of the antibiotic per se” value [2] of the same compound?
**A.** The value was “appear to be reduced at high levels”.

**Q.** What about the “Survival days, individual mouse” value (male CD-1 (ICR) mice; experiment (1): adriamycin 20 mg/kg i.p. daily for 3 days, no hydrogensulfite, mice No. 1-12 in order) of the same compound?
**A.** Its value is 0 days (8×) and 1 days (4×).

**Q.** And the “Survival days, mean (x)” value (male CD-1 (ICR) mice; experiment (1): adriamycin 20 mg/kg i.p. daily for 3 days, no hydrogensulfite, n=12, s 0.5778)?
**A.** Its value is 0.3333 days.

**Q.** And the “Survival days, individual mouse” value (male CD-1 (ICR) mice; experiment (2): adriamycin alone 20 mg/kg i.p., mice No. 1-11 in order, listed as ADM)?
**A.** The value was 14 days and 7 days and 6 days and 5 days and 4 days.

**Q.** What about the “Survival days, mean (x)” value (male CD-1 (ICR) mice; experiment (2): adriamycin alone 20 mg/kg i.p., n=11, s 2.747) of the same compound?
**A.** Its value is 7.545 days.

**Q.** Which Cellular toxicity [3] does the source give for `COc1cccc2c1C(=O)c1c(O)c3c(c(O)c1C2=O)C[C@@](O)(C(C)=O)C[C@@H]3O[C@H]1C[C@H](N)[C@H](O)[C@H](C)O1` [daunomycin] here?
**A.** Its Cellular toxicity is “have cellular toxicity”.

**Q.** And the “Base pairs of DNA reacting per one molecule (intercalation)” value (DNA)?
**A.** Its value is 3 base pairs.

**Q.** And the “Apparent change of mutagenicity at high levels of the antibiotic per se” value [2]?
**A.** Its value is “appear to be reduced at high levels”.

**Q.** Which “Hydrogensulfite ion in molar concentration necessary for complete inactivation of mutagenicity of adriamycin” value ([1]; absence of S9 mix (FIG. 5)) does the source give for `O=S(O)O` [hydrogensulfite ion] here?
**A.** Its value is “at least ten”.

**Q.** Which “Inactivation of mutagenicity of daunomycin (phage induction)” value ([1]; molar ratio dithionite to daunomycin 15:1, independently of S9 mix (FIGS. 13 and 14)) does the source give for `O=S([O-])S(=O)[O-].[Na+].[Na+]` [sodium dithionite] here?
**A.** The value was “completely inactivated”.

**Q.** With `O=S([O-])O.[Na+]` [sodium hydrogensulfite] as the compound, how does the “Reduction of toxicity of adriamycin (t-test of survival days)” value (male CD-1 (ICR) mice; experiment (1): adriamycin 20 mg/kg for 3 days, sodium hydrogensulfite 53.8 mg/kg (FIG. 10)) read?
**A.** The value was “significantly reduced toxicity at a confidence level of 90%”.

**Q.** For `O=S([O-])[O-].[Na+].[Na+]` [sodium sulfite], which “Inactivation of mutagenicity of daunomycin (phage induction)” value ([1]; molar ratio sodium sulfite to daunomycin 30:1, absence and presence of S9 mix (FIGS. 15 and 16)) is on record?
**A.** Its value is “completely inactivated”.

**Q.** With `O=S(O)O` [sulfite ion] as the compound, how does the “Inactivation of mutagenicities of coffee, tobacco tar and spirits” value [4] read?
**A.** Its value is “inactivates mutagenicities”.

**Q.** Which “Inactivation of mutagenicity (phage induction activity) of adriamycin, dose-response” value [1] does the source give for `O=S([O-])[O-].[K+].[K+]` [sulfite, potassium sulfite] here?
**A.** The value was “the more remarkably the mutagenicity of adriamycin was inactivated”.
